Measurements: patent US4056674A, “Derivatives of 3-deazaguanine” (priority 1975, dated 1977)
In brackets after ≈: the same amount, converted by molar mass. Read-outs that look alike come from different tables or passages of the source.

How the values were obtained:
[1] = test system: herpes simplex virus, type 1; test: In vitro antiviral, inhibition of virus-induced CPE, HSV/1; format: cell-based; details: KB or RK-13 cells, VR >0.5 significant, <0.5 slight antiviral activity
[2] = test system: herpes simplex virus, type 2; test: In vitro antiviral, inhibition of virus-induced CPE, HSV/2; format: cell-based; details: KB or RK-13 cells, VR >0.5 significant, <0.5 slight antiviral activity
vaccinia virus = format: cell-based; details: VV; KB or RK-13 cells; VR >0.5 significant, <0.5 slight antiviral activity
Escherichia Coli = test: In vivo antibacterial activity, survival of mice after intraperitoneal challenge with Escherichia coli 138; parameters: species or system white mice (ICR, COX 17 to 20 g); details: 7 days
Description: In this example compounds 7 and 23 were tested along with, as a comparison, the known antibiotic Gentamycin, to determine their in vivo antibacterial activity. Experimental infections were produced in groups of 20 white mice (ICR, COX 17 to 20 g).
*Ec 138: Tetracycline and Streptomycin
**The LD50 is the challenge that killed 50% of the infected mice; th
LD50 values for the pathogen were calculated by the method of Probit

[3] = test system: viruses causing respiratory diseases such as influenza in man; details: background statement; cited from earlier work
virus = details: background statement; cited from earlier work
leukemia L1210 = test: Activity against leukemia L1210 in BDF1 female mice; format: in vivo; details: 40 mg/kg i.p., qd [1-9]
Description: In this example compound 30 was tested for antitumor activity in mice. […] A 10^-5 M concentration of compound 30 caused 50% inhibition of the incorporation of ^3 H-thymidine and ^3 H-uridine into the acidinsoluble fraction of L1210 cells in tissue culture. […] Ara C (cytosine arabinoside) was included as a standard.
All animals were inoculated (i.p) with 10^5 leukemic cells. Treatment
was started 24 hours after transplant. Figures in parenthesis denote 21

rhinovirus, type 1A = test: In vitro antiviral, inhibition of virus-induced CPE, RV/1A; format: cell-based; details: KB or RK-13 cells, VR >0.5 significant, <0.5 slight antiviral activity
rhinovirus, type 8 = test: In vitro antiviral, inhibition of virus-induced CPE, RV/8; format: cell-based; details: KB or RK-13 cells, VR >0.5 significant, <0.5 slight antiviral activity
adenovirus, type 3 = test: In vitro antiviral, inhibition of virus-induced cytopathogenic effect (CPE), AV/3; format: cell-based; details: KB or RK-13 cells, VR >0.5 significant, <0.5 slight antiviral activity
[4] = test system: Parainfluenza virus, type 3; test: In vitro antiviral, inhibition of virus-induced CPE, PIV/3; format: cell-based
influenza virus, type Ao = test: In vitro antiviral, inhibition of virus-induced CPE, IV/Ao; format: cell-based; details: KB or RK-13 cells, VR >0.5 significant, <0.5 slight antiviral activity
human cytomegalovirus = test: In vitro antiviral, inhibition of virus-induced CPE, HCMV; format: cell-based; details: KB or RK-13 cells, VR >0.5 significant, <0.5 slight antiviral activity
[5] = test system: parainfluenza virus, type 1; test: In vitro antiviral, inhibition of virus-induced CPE, PIV/1; format: cell-based
RV/2: rhinovirus, type 1 = test: In vitro antiviral, inhibition of virus-induced CPE, RV/2; format: cell-based; details: KB or RK-13 cells, VR >0.5 significant, <0.5 slight antiviral activity
rhinovirus, type 56 = test: In vitro antiviral, inhibition of virus-induced CPE, RV/56; format: cell-based; details: KB or RK-13 cells, VR >0.5 significant, <0.5 slight antiviral activity
rhinovirus, type 13 = test: In vitro antiviral, inhibition of virus-induced CPE, RV/13; format: cell-based; details: KB or RK-13 cells, VR >0.5 significant, <0.5 slight antiviral activity
[6] = test system: vesicular stomatitis virus; format: cell-based; details: VSV; KB or RK-13 cells; VR >0.5 significant, <0.5 slight antiviral activity
myxoma virus = test: In vitro antiviral, inhibition of virus-induced CPE, MV; format: cell-based; details: KB or RK-13 cells, VR >0.5 significant, <0.5 slight antiviral activity
Description: In this example, compounds 3, 4, 13, 16, 20, 22, 29 and 30 were tested to determine their in vitro antiviral efficacy, using the inhibition virus-induced cytopathogenic effect (CPE) method of Sidwell, et al. (Applied Microbiology 22:797-801, 1971). Briefly, the CPE procedure includes the suspension of the antiviral agent in a cell culture medium consisting of vitamins, amino acids, serum, buffer, penicillin, streptomycin and indicator dye in water. The virus suspended in the cell culture medium was added to an established monolayer of KB cells or RK-13 cells, and an equal volume of the antiviral agent was then added within 15 minutes. The infected treated cells were graded following microscopic examination. Controls for each experiment include cell controls cells and cell culture medium only), virus controls (cell and virus cell culture medium) and toxicity controls (cells and chemical and cell culture medium).
The virus rating (VR) system of Sidwell et al., described in Applied Microbiology, supra, was used to evaluate the degree of significance of CPE inhibition.

pseudorabies virus = format: cell-based; details: PRV; KB or RK-13 cells; VR >0.5 significant, <0.5 slight antiviral activity
Klebsiella = test: In vitro antibacterial, broth dilution assay, Klebsiella; format: cell-based; details: clinical isolates, 24 hr at 35°
Description: (§1) In this example compounds 7 and 30 were tested to determine their in vitro antibacterial activity. Clinical isolates of pathogens were used for this example. In vitro sensitivity of these organisms were quantitatively determined by broth dilution assay. Serial dilutions were prepared in chemically defined medium in a range from 100 to 0.01 μg/ml. The minimal Inhibitory Concentration (MIC) was recorded as the highest dilution of compound which prevented visible growth of the pathogen following 24 hr incubation at 35°.

Enterobacter = test: In vitro antibacterial, broth dilution assay, Enterobacter; format: cell-based; details: clinical isolates, 24 hr at 35°
Description: as §1

Citrobacter = test: In vitro antibacterial, broth dilution assay, Citrobacter; format: cell-based; details: clinical isolates, 24 hr at 35°
Description: as §1

Escherichis = test: In vitro antibacterial, broth dilution assay, Escherichia; format: cell-based; details: Escherichis; clinical isolates; 24 hr at 35°; read-out: Average MIC
Description: as §1

Pseudomonas = test: In vitro antibacterial, broth dilution assay, Pseudomonas; format: cell-based; details: clinical isolates, 24 hr at 35°
Description: as §1

Shigella = test: In vitro antibacterial, broth dilution assay, Shigella; format: cell-based; details: clinical isolates, 24 hr at 35°
Description: as §1

Providence = test: In vitro antibacterial, broth dilution assay, Providence; format: cell-based; details: clinical isolates, 24 hr at 35°
Description: as §1

Serratia = test: In vitro antibacterial, broth dilution assay, Serratia; format: cell-based; details: clinical isolates, 24 hr at 35°
Description: as §1

Proteus = test: In vitro antibacterial, broth dilution assay, Proteus; format: cell-based; details: Proteus; clinical isolates; 24 hr at 35°; read-out: Average MIC
Description: as §1

Salmonella = test: In vitro antibacterial, broth dilution assay, Salmonella; format: cell-based; details: clinical isolates, 24 hr at 35°
Description: as §1

## N#CCc1c(C(N)=O)ncn1[C@@H]1O[C@H](COP(=O)(O)O)[C@@H](O)[C@H]1O [Compound 20, 5-Cyanomethyl-1-β-D-ribofuranosylimidazole-4-carboxamide 5'-phosphate]
[1]
  Virus rating (VR): 0.8
[2]
  Virus rating (VR): 0.5
Vaccinia virus
  Virus rating (VR): 0.3

## Nc1cc2ncn(C3CCCCO3)c2c(=O)[nH]1 (stereo not drawn) [Compound 13, 6-Amino-3-(tetrahydropyran-2-yl)imidazo[4,5-c]pyridin-4(5H)-one]
[1]
  Virus rating (VR): 0.8

## Nc1cc2ncn([C@@H]3O[C@H](COP(=O)(O)O)[C@@H](O)[C@H]3O)c2c(=O)[nH]1 [Compound 23, 6-Amino-3-β-D-ribofuranosylimidazo[4,5-c]pyridin-4(5H)-one-5'-phosphate]
Escherichia Coli; challenge 1000 LD50's, 100 mg/kg × 1, oral
  % survival: 100%

## O=c1[nH]c(=O)n([C@H]2C[C@H](O)[C@@H](CO)O2)cc1I [IDU, 5-iodo-2' -deoxyuridine]
[3]
  activity against respiratory disease viruses: only active against a limited spectrum of viruses which does not include those causing respiratory diseases

## N#CCc1c(C(N)=O)ncn1[C@@H]1O[C@H](CO)[C@@H](O)[C@H]1O [Compound 3, 5-Cyanomethyl-1-β-D-ribofuranosylimidazole-4-carboxamide]
[1]
  Virus rating (VR): 0.6
[2]
  Virus rating (VR): 1.3

## NC(=S)c1nc[nH]n1 [1,2,4-triazole-3thiocarboxamide]
virus
  antiviral activity: significant antiviral activity

## Nc1ccn([C@@H]2O[C@H](CO)[C@@H](O)[C@@H]2O)c(=O)n1 [Ara C, 1-β-D-arabinofuranosylcytosine, reference compound]
Leukemia L1210
  21 day survivors: 0/6
  Average Mean Survival: 17.33 days
  T/C: 2.11
  ΔWt.: -0.2 g
[3]
  activity against respiratory disease viruses: only active against a limited spectrum of viruses which does not include those causing respiratory diseases

## Gentamycin [reference compound]
Escherichia Coli; challenge 1 LD50, 1 mg/kg × 2, SC
  % survival: 100%
Escherichia Coli; challenge 10 LD50's, 1 mg/kg × 2, SC
  % survival: 100%
Escherichia Coli; challenge 100 LD50's, 1 mg/kg × 2, SC
  % survival: 90%
Escherichia Coli; challenge 1000 LD50's, 1 mg/kg × 2, SC
  % survival: 80%
Escherichia Coli; challenge 10,000 LD50's, 1 mg/kg × 2, SC
  % survival: 60%

## Nc1cc2c(ncn2[C@@H]2O[C@H](CO)[C@@H](O)[C@H]2O)c(=O)[nH]1 [Compound 4, 6-Amino-1-β-D-ribofuranosylimidazo[4,5-c]pyridin-4(5H)-one]
[1]
  Virus rating (VR): 0.9
rhinovirus, type 1A
  Virus rating (VR): 0.1
rhinovirus, type 8
  Virus rating (VR): 1.2
adenovirus, type 3
  Virus rating (VR): 0.8
[4]; PIV/3, KB or RK-13 cells, VR >0.5 significant, <0.5 slight antiviral activity
  Virus rating (VR): 0.6
Influenza virus, type Ao
  Virus rating (VR): 0.1
Human cytomegalovirus
  Virus rating (VR): 0.5
[5]; PIV/1, KB or RK-13 cells, VR >0.5 significant, <0.5 slight antiviral activity
  Virus rating (VR): 0.6
RV/2: rhinovirus, type 1
  Virus rating (VR): 1.2
rhinovirus, type 56
  Virus rating (VR): 0.7
rhinovirus, type 13
  Virus rating (VR): 1.0
[6]
  Virus rating (VR): 1.1
Vaccinia virus
  Virus rating (VR): 0.6
Myxoma virus
  Virus rating (VR): 1.0
Pseudorabies virus
  Virus rating (VR): 0.3

## NC(=O)c1ncn([C@@H]2O[C@H](CO)[C@@H](O)[C@H]2O)n1 [1-β-D-ribofuranosyl-1,2,4-triazole-3-carboxamide]
[3]
  activity against respiratory disease viruses: active against these respiratory disease viruses

## Nc1ncnc2c1ncn2[C@@H]1O[C@H](CO)[C@@H](O)[C@@H]1O [ara-A, 9-β-D-arabino furanosyladenine]
[3]
  activity against respiratory disease viruses: only active against a limited spectrum of viruses which does not include those causing respiratory diseases

## C[C@H]1O[C@@H](n2cnc3c(=O)[nH]c(N)cc32)[C@H](O)[C@@H]1O [Compound 16, 6-Amino-1-(5-deoxy-β-D-ribofuranosyl)imidazo[4,5-c]pyridine-4(5H)-one]
[1]
  Virus rating (VR): 0.9

## Nc1cc2ncn([C@@H]3O[C@H](CO)[C@@H](O)[C@H]3O)c2c(=O)[nH]1 [Compound 7, 6-amino-3-β-D-ribofuranosylimidazo[4,5-c]pyridin-4(5H)one]
Klebsiella
  MIC: 8 µg/mL (≈ 28.3 µM)
Enterobacter
  MIC: 10 µg/mL (≈ 35.4 µM)
Citrobacter
  MIC: 5 µg/mL (≈ 17.7 µM)
Escherichia Coli; challenge 1 LD50, 50 mg/kg × 2, oral
  % survival: 100%
Escherichia Coli; challenge 10 LD50's, 50 mg/kg × 2, oral
  % survival: 100%
Escherichia Coli; challenge 100 LD50's, 50 mg/kg × 2, oral
  % survival: 100%
Escherichia Coli; challenge 1000 LD50's, 50 mg/kg × 2, oral
  % survival: 90%
Escherichia Coli; challenge 10,000 LD50's, 50 mg/kg × 2, oral
  % survival: 75%
Escherichis
  MIC: 0.5 µg/mL (≈ 1.77 µM)
Pseudomonas
  MIC: 100 µg/mL (≈ 354 µM)
Shigella
  MIC: 100 µg/mL (≈ 354 µM)
Providence
  MIC: 15 µg/mL (≈ 53.1 µM)
Serratia
  MIC: 5 µg/mL (≈ 17.7 µM)
Proteus
  MIC: 10 µg/mL (≈ 35.4 µM)
Salmonella
  MIC: 5 µg/mL (≈ 17.7 µM)

## Nc1cc2c(ncn2[C@@H]2O[C@H](COP(=O)(O)O)[C@@H](O)[C@H]2O)c(=O)[nH]1 [Compound 22, 6-Amino-1-β-D-ribofuranosylimidazo[4,5-c]pyridin-4(5H)-one 5'-phosphate]
[1]
  Virus rating (VR): 0.9
[4]
  Virus rating (VR): 0.8
[5]
  Virus rating (VR): 0.3
[2]
  Virus rating (VR): 1.0
rhinovirus, type 13
  Virus rating (VR): 0.9
Vaccinia virus
  Virus rating (VR): 0.7

## N#CCc1[nH]cnc1C(N)=O [Compound 29, 4(5)-Cyanomethylimidazole-5(4)-carboxamide]
[1]
  Virus rating (VR): 0.9
adenovirus, type 3
  Virus rating (VR): 0.8
[4]
  Virus rating (VR): 0.5
rhinovirus, type 13
  Virus rating (VR): 0.6

## NC(=O)c1nc[nH]n1 [1,2,4-triazole-3-carboxamide]
virus
  antiviral activity: significant antiviral activity
